We go through 3 compounds from patent publication US8481592B2, “Uses of sesquiterpene derivatives” (Kwang Dong Pharm Co., Ltd., priority 2008, dated 2013).

In one data set the test system is C. elegans. Nature of the data set: Anti-obesity effect (fat content by Nile red staining) in C. elegans. It is filed as in vivo, Caenorhabditis elegans. Also noted: key to Fat content: A low fat content was indicated by +1; a high fat content was assigned with +4. The settings on record: for Fat content: Nile red staining; for inhibitory effect on adipogenesis: low concentration of 1 μg/ml. Here is the method: Using a dissecting microscope (×50 magnification), C. elegans at the 4th stage (L4, the imaginal stage) was transferred to 3 ml of a cholesterol-supplemented S-medium (containing NaCl, K2HPO4, KH2PO4, cholesterol, citrate, trace metals, CaCl2 and MgSO4), and 100 μl of E. coli OP50 (OD600=0.2) liquid-cultured overnight before 1 day of experiment was added thereto. The Pterocarpus indicus fraction sample was added to the liquid media containing C. elegans, followed by rotary culture in a dark room at 16° C. and 100 rpm. The water-insoluble sample was dissolved in DMSO and added to the culture media. The final concentration of DMSO was adjusted below 1%. […] 24 hours after the sample was added to C. elegans, 30 μl of a Nile red dye at a concentration of 10 μg/ml was added (final concentration of Nile red was adjusted to 100 ng/ml) to the media, followed by continuous rotary culture for 2 days.
In order to arrest the locomotory movement of C. elegan, 20 μl of 0.3% NaN3 was dropped on a slide glass to which 100 μl of C. elegans cultured in the presence of Nile red for 2 days was added. Under a fluorescence microscope, adipocytes of C. elegans emitting red fluorescence in a dark room were micrographed and compared with the control group to thereby determine the amount of fat. A low fat content was indicated by +1, whereas a high fat content was assigned with +4. Adult (L4 stage) C. elegans immediately prior to egg-laying were used in this Example. Therefore, the eggs were hatched after sample treatment and most of adult C. elegans were killed at 3 day post-treatment. A fat content was examined in C. elegans which had newly hatched and grown.

Data set [1] can be described thus: Body weight gain and total visceral fat weight in mice fed high fat diet containing sesquiterpene compound. The settings on record: HFD with 0.2% compound in diet, C57BL mice, 8 weeks; for total visceral fat weight: epididymal, perirenal, mesenteric and abdominal fat. It is filed as in vivo, mouse. From the text:
Obesity-inducible diet used in the present experiment was high fat diet (HFD: 40% fat calorie, 17 g Lard+3% maize oil/100 g diet) developed by the present inventors and the composition of diet containing sesquiterpene compounds was equal to that of HFD but each 8 sesquiterpene compounds with a concentration of 0.2% was included in diet [cedryl acetate-containing diet, (−)-α-cedrene-containing diet, (+)-β-cedrene-containing diet, cedrene epoxide-containing diet, methyl cedryl ether-containing diet, methyl cedryl ketone-containing diet, cedrenol-containing diet and (+)-cedrol-containing diet]. The composition of diet is described in the following Table 5.
6-old-week C57BL/63 male mice were adapted to laboratory environment during one week and divided into HFD control and 8 test groups according to randommized block design. […] Diet was supplied with water at 10-11 o'clock every morning, and intake amount of diet and body weight was measured every day and once of three days, respectively. The body weight was measure at 2 hrs after removing feed bin to block sudden change of body weight according to feed intake, and feed efficiency was calculated by dividing body weight gain by amount of total intake amount of diet during total experimental period which is from initial day supplying experimental diet to sacrificed day. After experimental animals were fasted for above 12 hrs, they were anesthetized with diethylether, and their blood, liver and visceral fat tissues (epididymal fat, perirenal fat, mesenteric fat and abdominal fat) were collected. And then, they were washed with 0.1 M phosphate-buffered saline (pH 7.4), and their weights were measured. Blood taken from abdominal aorta was centrifuged at 1,000×g for 15 min to separate plasma.

Data set [2] is described as follows: Biochemical index of blood and liver tissue in mice fed high fat diet containing sesquiterpene compound. The data set is classed as in vivo, mouse. The settings on record: for Liver Triglyceride / IRI (insulin resistance index) / Plasma Glucose / Plasma Insulin / Plasma Total cholesterol / Plasma Triglyceride: HFD with compound in diet, 8 weeks; for IRI (insulin resistance index) / Plasma Glucose / Plasma Insulin / Plasma Total cholesterol / Plasma Triglyceride: fasted. Here is the method:
The composition of diet is described in the following Table 5. […] After experimental animals were fasted for above 12 hrs, they were anesthetized with diethylether, and their blood, liver and visceral fat tissues (epididymal fat, perirenal fat, mesenteric fat and abdominal fat) were collected. And then, they were washed with 0.1 M phosphate-buffered saline (pH 7.4), and their weights were measured. […] Concentration of total Plasma cholesterol, triglyceride and glucose was measured twice according to commercially available measurement kit (Bio Clinical system), respectively. Insulin concentration was measured by ELISA using mouse insulin kit (Shibayaki, Japan). […] The homogenate was mixed with 5 ml of chloroform:methanol solution (2:1, v/v), and centrifuged at 1,000×g for 10 min to separate lower phase. […] Three ml of chloroform:methanol:0.05% CaCl2 solution (3:48:47, v/v/v) were added to the resulting lower phase, and thoroughly mixed for 1 min. The mixture was centrifuged at 1,000×g for 10 min. The final lower phase was completely dried on nitrogen gas, and the dried lipid was dissolved in 1 ml of methanol to use analysis of lipid component. Triglyceride concentration in lipid extracts from liver tissues was measured according to commercially available measurement kit (Bio Clinical system) equal to that used in analysis of plasma.

Data set [3] is described as follows: Physical characteristics of the compounds (solubility, stability). The settings on record: easily dissolved in organic solvent having lower polarity than ethanol, but not water.

The structures appear in SMILES notation. Marks after values point to notes of the source that are not given here.

For the compound `C[C@@H]1CC[C@H]2C(C)(C)[C@H]3C[C@@]12CC1OC13C` (stereo partly drawn) [cedrene epoxide, Cedrene epoxide], the Fat content entry with C. elegans (sample concentration 1 μg/ml) is “+4”. In addition, the Fat content result in the data set on C. elegans (sample concentration 10 μg/ml) is on record as “+3”. Further, the Fat content entry in the data set on C. elegans (sample concentration 100 μg/ml) is recorded as “+2”. In data set [1], the Body weight gain is 12.4 ± 1.36 g/8 weeks and the “total visceral fat weight” value came out at 65.6 ± 4.43 mg/g body weight. In data set [2], the “Liver Triglyceride” value worked out at 27.8 ± 2.41 µmol/g, the “IRI (insulin resistance index)” value was 0.94 ± 0.14* 10^−3 pmol insulin × mmol glucose × L^−2, the “Plasma Glucose” value came to 7.34 ± 0.68 mmol/L and the “Plasma Insulin” value was 0.71 ± 0.04 ng/mL. In addition, in data set [2], the “Plasma Total cholesterol” value is on record as 2.81 ± 0.18 mmol/L and the “Plasma Triglyceride” value is 1.32 ± 0.08 mmol/L. In data set [3], the Solubility result is “Fat soluble”.
In the case of `CC1=CCC23CC1C(C)(CO)C2CCC3C` (stereo not drawn) [cedrenol, Cedrenol], the “inhibitory effect on adipogenesis” value in the data set with C. elegans is given as “notably inhibitory effect on adipogenesis”. In the data set with C. elegans (sample concentration 1 μg/ml), the Fat content result is on record as “+2”. In addition, in the data set on C. elegans (sample concentration 10 μg/ml), the Fat content result is listed as “+1”. In addition, the Fat content entry in the data set on C. elegans (sample concentration 100 μg/ml) is reported as “+1”. For the same compound, in data set [1], the Body weight gain is reported as 9.51 ± 1.47 g/8 weeks and the “total visceral fat weight” value worked out at 57.8 ± 4.02 mg/g body weight. For the same compound, in data set [2], the “Liver Triglyceride” value is 25.0 ± 1.81 µmol/g, the “IRI (insulin resistance index)” value is 0.71 ± 0.09* 10^−3 pmol insulin × mmol glucose × L^−2, the “Plasma Glucose” value stood at 7.24 ± 0.56 mmol/L and the “Plasma Insulin” value amounted to 0.58 ± 0.07 ng/mL. Also, in data set [2], the “Plasma Total cholesterol” value was determined as 2.42 ± 0.22 mmol/L and the “Plasma Triglyceride” value is on record as 1.20 ± 0.10 mmol/L. Moreover, the Solubility result in data set [3] is recorded as “Fat soluble”.
Take `CO[C@]1(C)CC[C@@]23C[C@@H]1C(C)(C)[C@@H]2CC[C@H]3C` [methyl cedryl ether, Methyl cedryl ether]: the “inhibitory effect on adipogenesis” value in the data set on C. elegans is on record as “notably inhibitory effect on adipogenesis”. Moreover, in the data set with C. elegans (sample concentration 1 μg/ml), the Fat content result is “+1”. For the same compound, in the data set with C. elegans (sample concentration 10 μg/ml), the Fat content result is listed as “+2”. In addition, the Fat content entry in the data set with C. elegans (sample concentration 100 μg/ml) is on record as “+2”. Besides, in data set [1], the Body weight gain came out at 9.31 ± 0.91 g/8 weeks and the “total visceral fat weight” value worked out at 50.8 ± 6.12 mg/g body weight. In data set [2], the “Liver Triglyceride” value amounted to 24.4 ± 1.37 µmol/g, the “IRI (insulin resistance index)” value is reported as 0.61 ± 0.08* 10^−3 pmol insulin × mmol glucose × L^−2, the “Plasma Glucose” value came to 5.61 ± 0.53 mmol/L and the “Plasma Insulin” value stood at 0.67 ± 0.07 ng/mL. In addition, in data set [2], the “Plasma Total cholesterol” value is reported as 2.01 ± 0.24 mmol/L and the “Plasma Triglyceride” value is recorded as 1.29 ± 0.13 mmol/L. The “total cholesterol concentration reduced compared to HFD” value in data set [2] (plasma, 8-week) worked out at 46%. The Solubility result in data set [3] was “Fat soluble”.
